Results as given in ChEMBL document CHEMBL1140674, “Design and synthesis of bioactive adamantane spiro heterocycles” (Bioorg Med Chem Lett, 2007).

Assays:
[1] = Cytotoxicity against MDCK cells assessed as changes in cell morphology; format: cell-based, Canis lupus familiaris; conditions: dog
[2] = system: Influenza A virus; assay: Antiviral activity against influenza A/Hong Kong/7/87 (H3N2) in MDCK cells assessed as inhibition of virus-induced cytopathic effect by MTS assay; format: functional, organism-based
[3] = system: Trypanosoma brucei; assay: Antiparasitic activity against Trypanosoma brucei 221 blood stream form at pH 7.4; format: functional, organism-based

**Q.** Which MCC [1] does the source give for `C1CC2(CCN1)C1CC3CC(C1)CC2C3.Cl` here?
**A.** Its MCC is 17 µM.

**Q.** What about the EC50 ([2]; Influenza A virus, H3N2, MDCK) of the same compound?
**A.** The EC50 was 0.16 µM.

**Q.** For `C1C2CC3CC1CC(C2)C31CNC1`, which MCC [1] is on record?
**A.** Its MCC is 113 µM.

**Q.** And the EC50 ([2]; Influenza A virus, H3N2, MDCK)?
**A.** The EC50 was 0.33 µM.

**Q.** Which MCC [1] does the source give for `NC12CC3CC(CC(C3)C1)C2` [AMANTADINE] here?
**A.** Its MCC is greater than 100 µM.

**Q.** And the EC50 ([2]; Influenza A virus, H3N2, MDCK)?
**A.** The EC50 was 1.98 µM.

**Q.** What about the IC50 [3] of the same compound?
**A.** Its IC50 is greater than 130 µM.

**Q.** With `CN1CCC2(CC1)C1CC3CC(C1)CC2C3.Cl` as the compound, how does the MCC [1] read?
**A.** The MCC was 4 µM.

**Q.** And the EC50 ([2]; Influenza A virus, H3N2, MDCK)?
**A.** The EC50 was 4.3 µM.

**Q.** Which IC50 [3] does the source give for `O=C1NC(=O)C2(C(=O)N1)C1CC3CC(C1)CC2C3` here?
**A.** Its IC50 is 20 µM.

**Q.** Which MCC [1] does the source give for `C1C2CC3CC1CC(C2)C31CN1` (centres undefined) here?
**A.** Its MCC is 25 µM.

**Q.** And the EC50 ([2]; Influenza A virus, H3N2, MDCK)?
**A.** Its EC50 is greater than 5 µM.

**Q.** What about the IC50 [3] of the same compound?
**A.** Its IC50 is greater than 30 µM.

**Q.** For `CN1CCC2(CC1)C1CC3CC(C1)CC2C3`, which IC50 [3] is on record?
**A.** The IC50 was greater than 20 µM.

**Q.** With `CN1CC12C1CC3CC(C1)CC2C3` (centres undefined) as the compound, how does the MCC [1] read?
**A.** Its MCC is 23 µM.

**Q.** What about the EC50 ([2]; Influenza A virus, H3N2, MDCK) of the same compound?
**A.** Its EC50 is greater than 4.5 µM.

**Q.** For `C1CC2(N1)C1CC3CC(C1)CC2C3` (centres undefined), which MCC [1] is on record?
**A.** The MCC was 250 µM.

**Q.** What about the EC50 ([2]; Influenza A virus, H3N2, MDCK) of the same compound?
**A.** The EC50 was 0.36 µM.

**Q.** Which MCC [1] does the source give for `CC(N)C12CC3CC(CC(C3)C1)C2` (centres undefined) [RIMANTADINE] here?
**A.** The MCC was greater than 100 µM.

**Q.** And the EC50 ([2]; Influenza A virus, H3N2, MDCK)?
**A.** The EC50 was 0.362 µM.

**Q.** What about the IC50 [3] of the same compound?
**A.** The IC50 was 7.04 µM.

**Q.** And the IC90 [3]?
**A.** Its IC90 is 14 µM.

**Q.** Which results are given for `CN1CCC12C1CC3CC(C1)CC2C3` (centres undefined)?
**A.** MCC [1]: 50 µM; EC50 ([2]; Influenza A virus, H3N2, MDCK): 0.59 µM; IC50 [3]: > 25 µM

**Q.** With `C1CC2(CCN1)C1CC3CC(C1)CC2C3` as the compound, how does the IC50 [3] read?
**A.** The IC50 was 5.28 µM.

**Q.** What about the IC90 [3] of the same compound?
**A.** The IC90 was 9.99 µM.

**Q.** With `NC(=O)c1ncn([C@@H]2O[C@H](CO)[C@@H](O)[C@H]2O)n1` [RIBAVIRIN] as the compound, how does the MCC [1] read?
**A.** The MCC was 20 µM.

**Q.** And the EC50 ([2]; mdck)?
**A.** The EC50 was 8.68 µM.
